US12384792B2, “Solid forms of isoquinolinones, and process of making, composition comprising, and methods of using the same” (Twelve Therapeutics, Inc., priority 2015, dated 2025)
Values after ≈ are worked out from the molar mass of the structure shown. Where two headings read alike, the source gives them in different places.

Legend:
post-irradiated tumors = settings: cited from earlier work
[1] = Kinetic solubility after 30 min in water and in 0.1M HCl; type: physicochemical; settings: thermodynamic from solid, free base, 30 min, read-out: 30 min Kinetic solubility (pH), free base
Text: See tables below for the summarized results.

[2] = Solubility of Compound 1 in acetonitrile/water during controlled crystallization; type: physicochemical
Experimental: An appropriate amount of acetonitrile/water were added to bring the solution to 80/20 v/v acetonitrile/water at 20 L/kg of Compound 1. The slurry was agitated and heated to 75° C. until all the Compound 1 was dissolved. The clear solution was polished filtered with a Zapcap filter (0.45 μm). The solution was put back into the reactor and cool down to 65° C.
The mixture was held under agitation at 22° C. for 2 hrs after the end of water addition.
20 L/kg of 80/20 v/v acetonitrile/water was added to Compound 1 solid charged into a reactor. The slurry was agitated and heated to 75° C. until all Compound 1 was dissolved. The clear solution was polish filtered with a Zapcap filter (0.45 μm). The solution was put back into the reactor and cooled down to 65° C.

[3] = system: PI3 kinase (e.g., PI3K-delta); settings: in vitro; cited from earlier work
[4] = system: PI3 kinase (e.g., PI3K-delta); settings: smoking mice in vivo; cited from earlier work
[5] = system: non-small-cell lung cancer, melanoma, and renal-cell cancer; settings: clinical trial with a total of 296 patients; cited from earlier work

Compound: c1cc(CN2CCCNCCNCCCNCC2)ccc1CN1CCCNCCNCCCNCC1 [AMD3100]
- tumor vasculogenesis and tumor regrowth (post-irradiated tumors): blocked

Compound: C[C@H](NC(=O)c1c(N)nn2cccnc12)c1cc2cccc(C#Cc3cnn(C)c3)c2c(=O)n1-c1ccccc1 [Compound 1, (S)-2-amino-N-(1-(8-((1-methyl-1H-pyrazol-4-yl)ethynyl)-1-oxo-2-phenyl-1,2-dihydroisoquinolin-3-yl)ethyl)pyrazolo[1,5-a]pyrimidine-3-carboxamide]
- solubility kinetic at 30 min ([1]; 0.1M HCl, pH 1.5, simulated gastric fluid, in 0.1M HCl, pH 1.5 and 1.3): 10 µg/mL (≈ 0.0189 mM)
- solubility kinetic at 30 min ([1]; water, pH 7.1, water, in water (footnote *), pH 7.1 and 6.8): 10 µg/mL (≈ 0.0189 mM)
- solubility ([2]; aqueous with cosolvent or surfactant or cyclodextrin, 40/60 v/v acetonitrile/water, 22° C.): ~3 mg/mL (≈ 5.68 mM)
- solubility ([2]; organic solvent or mixture, 80/20 v/v acetonitrile/water, 22° C.): ~18 mg/mL (≈ 34.1 mM)
- solubility ([2]; organic solvent or mixture, 80/20 v/v acetonitrile/water, 65° C.): ~50 mg/mL (≈ 94.6 mM)

Compound: Cn1c(=O)c2[nH]cnc2n(C)c1=O [Theophylline, theophylline]
- histone deacetylase-2 and corticosteroid sensitivity [3]: increases
- histone deacetylase-2 and corticosteroid sensitivity [4]: increases

Compound: nivolumab: fully human IgG4 monoclonal antibody which specifically blocks PD1
- response in non-small-cell lung cancer, melanoma, and renal-cell cancer [5]: complete or partial responses
